Laboratory results taken from article PMC8121435, “Cork-in-bottle mechanism of inhibitor binding to mammalian complex I” (Science Advances, 2021).
Where “and” joins values, the source holds several entries; their conditions need not be identical. Identical values can stand only once.

Experiments:
Assay type in all cases: biochemical
[1] = molecular target: T1, P. denitrificans complex I (Paracoccus denitrificans, UniProt P29916+P29918+P29920); test: NADH:decylubiquinone oxidoreduction by purified P. denitrificans complex I; conditions: dQ, pH 6.5
T1 construct: Complex I was purified from P. denitrificans strain Pd1222; endogenous in cells; host or cells: P. denitrificans strain Pd1222
Method: (§1) All catalytic activity assays were conducted at 32°C in 96-well plates using a Molecular Devices Spectramax 384 plus plate reader. Catalysis was initiated by addition of 200 μM NADH and monitored at 340 and 380 nm (ε340–380 = 4.81 mM^−1 cm^−1). Linear rates were measured for all assays, inhibitors were added from dimethyl sulfoxide stock solutions as required, and inhibitor-insensitive rates (using either 1 μM piericidin A or 1.4 μM IACS-2858) were subtracted from each measured rate. Membrane samples were prepared as described previously ([17], [20], [59], [60]), diluted to 20 μg ml^−1 in 10 mM tris-SO4 (pH 7.5) and 250 mM sucrose, and supplemented with 3 μM horse heart cytochrome c (except for P. denitrificans, for which the activity is unaffected by the addition). Mouse, bovine, and yeast (Y. lipolytica) complex I were purified as described previously ([17], [20], [59]); diluted to 0.5 nM in 20 mM tris-HCl (pH 7.5), 0.15% asolectin, and 0.15% CHAPS; and assayed using either 200 μM dQ or 200 μM ubiquinone-1 (Sigma-Aldrich). Complex I was purified from P. denitrificans strain Pd1222 ([61]) and provided by O. D. Jarman (MRC Mitochondrial Biology Unit, University of Cambridge); it was assayed likewise but in 10 mM MES-HCl (pH 6.5), 25 mM NaCl, and 2 mM CaCl2. […]

complex I in bovine SMPs = molecular target: T2, complex I in bovine SMPs (Bos taurus, UniProt P03887+P17694+P42026); test: Forward electron transport (NADH oxidation) in bovine heart submitochondrial particles; conditions: NADH oxidation rate, ± SE
T2 construct: Complex I from bovine heart were prepared; from tissue; host or cells: bovine heart mitochondria
Method: as §1

mouse complex I = molecular target: T3, mouse complex I (Mus musculus, UniProt P03888+Q91WD5+Q9DC70); test: Extent of inhibition of isolated IACS-2858-bound mouse complex I prepared for cryo-EM; conditions: isolated inhibitor-bound enzyme after size exclusion, initial rate versus control without inhibitor; cryo-EM sample
T3 construct: from tissue; host or cells: mouse (C57BL/6) heart mitochondria
Method: Complex I inhibited by IACS-2858 was prepared by a method adapted from that of Bridges et al. ([23]) for preparing mouse complex I inhibited by piericidin A1. C57BL/6 mice were euthanized by cervical dislocation in accord with the UK Animals (Scientific Procedures) Act 1986 (PPL: P6C97520A, approved by the local ethics committee and the UK Home Office), and mitochondrial membranes were prepared from heart tissue as described previously ([20]). Starting from membranes containing ~40 mg of total protein, the proteins were solubilized from the membranes by addition of 1% DDM (Glycon), and the mixture was centrifuged. […] The level of inhibition achieved was determined by comparing the initial rates of catalysis by the control and inhibited samples in buffer containing 20 mM tris-HCl (pH 7.5 at 32°C), 0.15% soy bean asolectin (Avanti Polar Lipids), and 0.15% CHAPS (Merck Chemicals Ltd.), using 200 μM dQ, with catalysis initiated by 200 μM NADH and monitored at 340 to 380 nm (ε = 4.81 mM^−1 cm^−1). […] The concentration of the peak fraction for the inhibited protein, eluting at ~1.65 ml, was estimated using a NanoDrop ultraviolet-visible spectrophotometer [ε280 = 0.2 (mg ml^−1)^−1], and the level of inhibition of the final eluted IACS-2858–treated sample was determined as above. […]

Structure (SMILES): CS(=O)(=O)C1CCN(c2cccc(Cn3cc(-c4nc(-c5ccc(OC(F)(F)F)cc5)no4)ccc3=O)c2)CC1 [IACS-2858, 1-(3-(4-(Methylsulfonyl)piperidin-1-yl)benzyl)-5-(3-(4-(trifluoromethoxy)phenyl)-1,2,4-oxadiazol-5-yl)pyridin-2(1H)-one]
- IC50 [1]: ~110 µM
- IC50 (complex I in bovine SMPs): 0.0064 ± 0.0002 µM
- extent of inhibition (mouse complex I): 81 ± 5% and 81.3 ± 4.7%
